Experimental data: US6525001B1, “Substituted pyrimidine and pyridine herbicides” (Mid-American Commercialization Corporation, priority 1997, dated 2003)

Tests used:
Assay type in all cases: in vivo
Parameters in all cases: key: 0 is no effect; 10 is complete control
[1] = test system: wheat (Triticum aestivum); assay: Test B pre-/postemergence
How it was run: (§1)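 Compounds in a surfactant-containing, non-phytotoxic solvent blend are applied to freshly planted seed (preemergence) and, concurrently, to seedlings of 2 to 18 cm at 1–4 leaves (postemergence). Plants stay in the greenhouse twelve to sixteen days and are then scored visually from 0 (no effect) to 10 (complete control).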

rape (Brassica napus) = assay: Test B pre-/postemergence
How it was run: as §1

[2] = test system: sugar beet (Beta vulgaris); assay: Test B pre-/postemergence
How it was run: as §1

[3] = test system: velvetleaf (Abutilon theophrasti); assay: Test B pre-/postemergence
How it was run: as §1

soybean (Glycine max) = assay: Test B pre-/postemergence
How it was run: as §1

[4] = test system: purple nutsedge (Cyperus rotundus); assay: Test B pre-/postemergence
How it was run: as §1

corn (Zea mays) = assay: Test B pre-/postemergence
How it was run: as §1

[5] = test system: giant foxtail (Setaria faberii); assay: Test B pre-/postemergence
How it was run: as §1

[6] = test system: bedstraw (Galium aparine); assay: Test B pre-/postemergence
How it was run: as §1

wild oat (Avena fatua) = assay: Test B pre-/postemergence
How it was run: as §1

[7] = test system: crabgrass (Digitaria sanguinalis); assay: Test B pre-/postemergence
How it was run: as §1

[8] = test system: smallflower flatsedge (Cyperus difformis); assay: Test B flood test; conditions: for Plant response rating, S. Flatsedge: Postemergence (flood test species)
How it was run: (§2)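 Read-out is a visual response score from 0 (no effect) to 10 (complete control), assigned by comparison with untreated controls. Treatment was applied at the 2-leaf stage, and plants stayed in the greenhouse for twelve to sixteen days before scoring.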

[9] = test system: duck salad (Heteranthera limosa); assay: Test B flood test; conditions: for Plant response rating, Ducksalad: Postemergence (flood test species)
How it was run: as §2

[10] = test system: bamyardgrass (Echinochloa crus-galli); assay: Test B flood test; conditions: for Plant response rating, Barnyardgrass: Postemergence (flood test species)
How it was run: as §2

rice (Oryza sativa) = assay: Test B flood test; conditions: for Plant response rating, Rice: Postemergence (flood test species)
How it was run: as §2

[11] = Preemergence, Rate 62 g/ha, scale of 0 to 10
[12] = Rate 62 g/ha, Postemergence (flood test)
[13] = Rate 125 g/ha, Postemergence section (flood test species)

Cc1cnc(-n2ccc(C(F)(F)F)n2)nc1C(=O)c1ccc(C(F)(F)F)cc1 [Compound 65]
0: Plant response rating, Wheat [1, 11] | Plant response rating, Wheat ([1]; Rate 125 g/ha, Preemergence) | Plant response rating, Wheat ([1]; Rate 250 g/ha, Preemergence) | Plant response rating, Wheat ([1]; Rate 500 g/ha, Preemergence) | Plant response rating, Rape (rape (Brassica napus); [11]) | Plant response rating, Rape (rape (Brassica napus); Rate 125 g/ha, Preemergence) | Plant response rating, Rape (rape (Brassica napus); Rate 250 g/ha, Preemergence) | Plant response rating, Rape (rape (Brassica napus); Rate 500 g/ha, Preemergence) | Plant response rating, Sugarbeets [2, 11] | Plant response rating, Sugarbeets ([2]; Rate 125 g/ha, Preemergence) | Plant response rating, Sugarbeets ([2]; Rate 250 g/ha, Preemergence) | Plant response rating, Sugarbeets ([2]; Rate 500 g/ha, Preemergence) | Plant response rating, Velvetleaf [3, 11] | Plant response rating, Velvetleaf ([3]; Rate 125 g/ha, Preemergence) | Plant response rating, Velvetleaf ([3]; Rate 250 g/ha, Preemergence) | Plant response rating, Soybean (soybean (Glycine max); [11]) | Plant response rating, Soybean (soybean (Glycine max); Rate 125 g/ha, Preemergence) | Plant response rating, Soybean (soybean (Glycine max); Rate 250 g/ha, Preemergence) | Plant response rating, Soybean (soybean (Glycine max); Rate 500 g/ha, Preemergence) | Plant response rating, Nutsedge [4, 11] | Nutsedge plant response rating ([4]; Rate 62 g/ha, Postemergence) | Nutsedge plant response rating ([4]; Rate 125 g/ha, Postemergence) | Plant response rating, Nutsedge ([4]; Rate 125 g/ha, Preemergence) | Plant response rating, Nutsedge ([4]; Rate 250 g/ha, Postemergence) | Plant response rating, Nutsedge ([4]; Rate 250 g/ha, Preemergence) | Plant response rating, Nutsedge ([4]; Rate 500 g/ha, Preemergence) | Plant response rating, Corn (corn (Zea mays); [11]) | Plant response rating, Corn (corn (Zea mays); Rate 125 g/ha, Preemergence) | Plant response rating, Corn (corn (Zea mays); Rate 250 g/ha, Preemergence) | Plant response rating, Corn (corn (Zea mays); Rate 500 g/ha, Preemergence) | Plant response rating, Giant foxtail [5, 11] | Plant response rating, Giant foxtail ([5]; Rate 125 g/ha, Preemergence) | Plant response rating, Giant foxtail ([5]; Rate 250 g/ha, Preemergence) | Plant response rating, Giant foxtail ([5]; Rate 500 g/ha, Preemergence) | Plant response rating, Bedstraw [6, 11] | Bedstraw plant response rating ([6]; Rate 62 g/ha, Postemergence) | Plant response rating, Bedstraw ([6]; Rate 125 g/ha, Preemergence) | Plant response rating, Bedstraw ([6]; Rate 250 g/ha, Preemergence) | Plant response rating, Bedstraw ([6]; Rate 500 g/ha, Preemergence) | Plant response rating, Wild oats (wild oat (Avena fatua); [11]) | Plant response rating, Wild oats (wild oat (Avena fatua); Rate 125 g/ha, Preemergence) | Plant response rating, Wild oats (wild oat (Avena fatua); Rate 250 g/ha, Preemergence) | Plant response rating, Wild oats (wild oat (Avena fatua); Rate 500 g/ha, Preemergence) | Plant response rating, Crabgrass [7, 11] | Plant response rating, Crabgrass ([7]; Rate 125 g/ha, Preemergence) | Plant response rating, Crabgrass ([7]; Rate 250 g/ha, Preemergence) | Plant response rating, Crabgrass ([7]; Rate 500 g/ha, Preemergence) | S. Flatsedge plant response rating [8, 12] | S. Flatsedge plant response rating [8, 13] | Plant response rating, S. Flatsedge ([8]; Rate 250 g/ha) | Plant response rating, S. Flatsedge ([8]; Rate 500 g/ha) | Ducksalad plant response rating [9, 12] | Ducksalad plant response rating [9, 13] | Plant response rating, Ducksalad ([9]; Rate 250 g/ha) | Plant response rating, Ducksalad ([9]; Rate 500 g/ha) | Barnyardgrass plant response rating [10, 12] | Barnyardgrass plant response rating [10, 13] | Plant response rating, Barnyardgrass ([10]; Rate 250 g/ha) | Plant response rating, Barnyardgrass ([10]; Rate 500 g/ha) | Rice plant response rating (rice (Oryza sativa); [12]) | Rice plant response rating (rice (Oryza sativa); [13]) | Plant response rating, Rice (rice (Oryza sativa); Rate 250 g/ha) | Plant response rating, Rice (rice (Oryza sativa); Rate 500 g/ha)
2: Plant response rating, Wheat ([1]; Rate 250 g/ha, Postemergence) | Plant response rating, Wheat ([1]; Rate 500 g/ha, Postemergence) | Plant response rating, Rape (rape (Brassica napus); Rate 250 g/ha, Postemergence) | Plant response rating, Rape (rape (Brassica napus); Rate 500 g/ha, Postemergence) | Plant response rating, Velvetleaf ([3]; Rate 250 g/ha, Postemergence) | Plant response rating, Velvetleaf ([3]; Rate 500 g/ha, Postemergence) | Soybean plant response rating (soybean (Glycine max); Rate 125 g/ha, Postemergence) | Plant response rating, Soybean (soybean (Glycine max); Rate 250 g/ha, Postemergence) | Plant response rating, Soybean (soybean (Glycine max); Rate 500 g/ha, Postemergence)
7: Sugarbeets plant response rating ([2]; Rate 62 g/ha, Postemergence) | Sugarbeets plant response rating ([2]; Rate 125 g/ha, Postemergence) | Plant response rating, Bedstraw ([6]; Rate 250 g/ha, Postemergence) | Plant response rating, Bedstraw ([6]; Rate 500 g/ha, Postemergence)
3: Bedstraw plant response rating ([6]; Rate 125 g/ha, Postemergence)
8: Plant response rating, Sugarbeets ([2]; Rate 250 g/ha, Postemergence) | Plant response rating, Sugarbeets ([2]; Rate 500 g/ha, Postemergence)
1: Wheat plant response rating ([1]; Rate 62 g/ha, Postemergence) | Wheat plant response rating ([1]; Rate 125 g/ha, Postemergence) | Rape plant response rating (rape (Brassica napus); Rate 62 g/ha, Postemergence) | Rape plant response rating (rape (Brassica napus); Rate 125 g/ha, Postemergence) | Velvetleaf plant response rating ([3]; Rate 62 g/ha, Postemergence) | Velvetleaf plant response rating ([3]; Rate 125 g/ha, Postemergence) | Plant response rating, Velvetleaf ([3]; Rate 500 g/ha, Preemergence) | Soybean plant response rating (soybean (Glycine max); Rate 62 g/ha, Postemergence) | Corn plant response rating (corn (Zea mays); Rate 62 g/ha, Postemergence) | Corn plant response rating (corn (Zea mays); Rate 125 g/ha, Postemergence) | Plant response rating, Corn (corn (Zea mays); Rate 250 g/ha, Postemergence) | Plant response rating, Corn (corn (Zea mays); Rate 500 g/ha, Postemergence) | Giant foxtail plant response rating ([5]; Rate 62 g/ha, Postemergence) | Giant foxtail plant response rating ([5]; Rate 125 g/ha, Postemergence) | Plant response rating, Giant foxtail ([5]; Rate 250 g/ha, Postemergence) | Plant response rating, Giant foxtail ([5]; Rate 500 g/ha, Postemergence) | Wild oats plant response rating (wild oat (Avena fatua); Rate 62 g/ha, Postemergence) | Wild oats plant response rating (wild oat (Avena fatua); Rate 125 g/ha, Postemergence) | Plant response rating, Wild oats (wild oat (Avena fatua); Rate 250 g/ha, Postemergence) | Plant response rating, Wild oats (wild oat (Avena fatua); Rate 500 g/ha, Postemergence) | Crabgrass plant response rating ([7]; Rate 62 g/ha, Postemergence) | Crabgrass plant response rating ([7]; Rate 125 g/ha, Postemergence) | Plant response rating, Crabgrass ([7]; Rate 250 g/ha, Postemergence) | Plant response rating, Crabgrass ([7]; Rate 500 g/ha, Postemergence)
